Measured values taken from US4649131A, “Growth hormone releasing factor analogs” (Hoffmann-La Roche Inc., priority 1985, dated 1987).
No end group written: not given here.

Legend:
rat pituitary cells = assay: stimulation of growth hormone production in rat pituitary cells in tissue culture (RIA for rat growth hormone); assay type: cell-based
Experimental: Biological activity of the synthetic GRF(1-44)NH2 was identical to the natural GRF(1-44)NH2 which was isolated from a human pancreatic tumor of an individual suffering from acrommegaly (Salk Institute standard hGRF-NH2 (NL-A-10)). The assay for biological activity, which is based on the ability to stimulate production of growth hormone in rat pituitary cells in tissue culture, was performed in the following manner.
Pituitaries from 30-40 male Sprague-Dawley rats (175 g) were removed aseptically after decapitation. The anterior lobes were collected, washed 3 times in sterile Hepes buffer (0.025M) (pH 7.35) and dispersed at 37° C. in 20-30 ml Hepes buffer (pH 7.35) containing collagenase (4 mg per ml) and Dispase (Protease grade II, 2 mg per ml). After gentle 100-110-min. vortexing and trituration by Pasteur pipette, the dispersed cells were separated by centrifugation (150×g, 4 min) and re-suspended in Hepes buffer containing neuraminidase ([…]), and 200 µg/ml ethylenediaminetetraacetic acid (EDTA) disodium salt pH 7.35, for 10 min. The cells were washed twice with plating medium and plated on multiwell-plates (1.5×10^5 cells per ml) using the following defined medium: F-12/DMEM/BGJ (6:3:1) (Gibco: 430-1700/430-1600/320-2591) with 2 g BSA/1., 2.38 g Hepes/1.50 mg PSN antibiotic mixture (Gibco Laboratories), 10 mg/l transferrin (Sigma T2252) with 1.83 gm NazHCO3/l (Baker 3506). The medium in each well was supplemented either with a sample of the novel GRF peptide or natural GRF(1-44)-NH2 at concentrations ranging from 0.8 to 200 fmol. per ml. of medium. Control wells contained no supplement. Plating was done with this medium added with 2% fetal calf serum to ensure rapid fixation of the cells. On the fourth day the cells were washed twice with the defined medium without fetal calf serum. Finally 900 μl of defined medium was added to each well plus 100 μl of the same medium containing each individual treatment, in triplicate. After 4 hours of incubation the medium was collected and diluted as required to conduct radioimmunoassay (RIAs) for rat growth hormone. […]

[1] = test system: release of growth hormone; settings: Rivier and Vale et al., Nature 300, 276-278 (1982); cited from earlier work

Compound: CC[C@H](C)[C@H](NC(=O)[C@H](C)NC(=O)[C@H](CC(=O)O)NC(=O)[C@H](C)NC(=O)[C@@H](N)Cc1ccc(O)cc1)C(=O)N[C@@H](Cc1ccccc1)C(=O)N[C@H](C(=O)N[C@@H](CC(N)=O)C(=O)N[C@@H](CO)C(=O)N[C@@H](Cc1ccc(O)cc1)C(=O)N[C@@H](CCCNC(=N)N)C(=O)N[C@@H](CCCCN)C(=O)N[C@H](C(=O)N[C@@H](CC(C)C)C(=O)NCC(=O)N[C@@H](CCC(N)=O)C(=O)N[C@@H](CC(C)C)C(=O)N[C@@H](CO)C(=O)N[C@@H](C)C(=O)N[C@@H](CCCNC(=N)N)C(=O)N[C@@H](CCCCN)C(=O)N[C@@H](CC(C)C)C(=O)N[C@@H](CC(C)C)C(=O)N[C@@H](CCC(N)=O)C(=O)N[C@@H](CC(=O)O)C(=O)N[C@H](C(=O)N[C@@H](CCSC)C(=O)N[C@@H](CO)C(=O)N[C@@H](CCCNC(=N)N)C(=O)N[C@@H](CCC(N)=O)C(=O)N[C@@H](CCC(N)=O)C(=O)NCC(=O)N[C@@H](CCC(=O)O)C(=O)N[C@@H](CO)C(=O)N[C@@H](CC(N)=O)C(=O)N[C@@H](CCC(N)=O)C(=O)N[C@@H](CCC(=O)O)C(=O)N[C@@H](CCCNC(=N)N)C(=O)NCC(=O)N[C@@H](C)C(=O)N[C@@H](CCCNC(=N)N)C(=O)N[C@@H](C)C(=O)N[C@@H](CCCNC(=N)N)C(=O)N[C@@H](CC(C)C)C(N)=O)[C@@H](C)CC)C(C)C)[C@@H](C)O [synthetic GRF(1-44)NH2, GRF(1-44)-NH2]
- biological activity compared with natural GRF(1-44)NH2 (rat pituitary cells; versus natural GRF(1-44)NH2 isolated from a human pancreatic tumor (Salk Institute standard NL-A-10)): identical

Compound: GRF(1-29)-NH2
- intrinsic activity and potency in vitro [1]: full intrinsic activity and potency

Compound: YADAIFTNSYRKVLAQLSARKLLQDIMSR-NH2 [(Ala^15)GRF(1-29)NH2, [Ala^15]-hGRF(1-29)-NH2]
- potency compared to GRF(1-44)NH2 (rat pituitary cells; relative to GRF(1-44)NH2, on a weight for weight basis, 4 hours of incubation): 4.1 times
- potency compared to GRF(1-29)NH2 (rat pituitary cells; relative to unsubstituted shortened GRF(1-29)NH2, 4 hours of incubation): 5.1 times
